In patent publication US10555987B2, “GHRH agonists for the treatment of ischemic disorders” (UNIVERSITY OF MIAMI, priority 2012, dated 2020):
Non-standard residues stand in square brackets, D forms with d. Residues, ends and D or L forms follow the SMILES beside them. *: point of attachment. Desaminotyrosyl = O=C(CCc1ccc(O)cc1)*; NMeY = CN[C@@H](Cc1ccc(O)cc1)C(=O)O; Agmatine = N=C(N)NCCCCN*; Nle = CCCC[C@H](N)C(=O)O; Orn = NCCC[C@H](N)C(=O)O; Abu = CC[C@H](N)C(=O)O

Experiments:
GH release [1] = experiment: GH releasing potency in vivo, subcutaneous administration (Example 14, Table 12); design: species or system rat; details: s.c.; for Serum GH level at selected time after injection (ng/ml), 0 min / Serum GH level at selected time after injection (ng/ml), 15 min / Serum GH level at selected time after injection (ng/ml), 30 min: male rats, dose 3 μg/kg, mean ± SEM
Description: Male Sprague-Dawley rats, weighing 200-250 g, were purchased from Charles River Laboratory (Wilmington, Mass.) and used for experiments. All animal procedures were approved by the Veterans Affairs Animal Care and Use Committee and were conducted in accordance with additional institutional guidelines as well. Briefly, groups of 5-6 animals were used in each experiment. The rats were anesthetized with 50 mg/kg of sodium pentobarbital (Nembutal, Lundbeck Inc., Deerfield, Ill.). Twenty min after inducing anesthesia, GHRH(1-29)NH2, JI-38, or new analogs were injected into the animals intravenously (i.v.) or subcutaneously (s.c.). The peptides were dissolved in 0.01 M acetic acid to get 1 μg/μl stock solution, and then diluted with 5% mannitol. Control rats received 5% mannitol only. Blood samples were collected from the jugular vein at selected times and were used for serum preparation. Concentrations of GH in rat sera were determined by ELISA. The relative potencies of tested peptides were calculated using GHRH(1-29)NH2 and JI-38 for comparison, whose potency was defined as 1. The equivalent dosage of GHRH(1-29)NH2 to reach the same level of serum growth hormone release after injection of the specific tested peptide was determined from a GHRH(1-29)NH2 standard curve using Origin 6.0 software. […] Serum GH was determined using the rat Growth Hormone ELISA kit (ALPCO Diagnostics, Mill Valley, Calif.) according to the manufacturer's instruction. Absorbance at 405 nm was measured by a Victor 3 Multi-label Counter (Perkin-Elmer, Waltham, Md.).

GHRH receptor [2] = biological target: T1, GHRH receptor (Homo sapiens, UniProt Q02643); experiment: Receptor binding in vitro, 125I-labeled [His1,Nle27]-hGHRH(1-32)NH2, membrane receptors of human anterior pituitary cells (Table 14); details: for Relative affinity (Binding potency) compared to JI-38: JI-38 = 1; for Relative affinity (Binding potency) compared to hGHRH(1-29): hGHRH(1-29)NH2 = 1
T1 sequence (Q02643 23-423): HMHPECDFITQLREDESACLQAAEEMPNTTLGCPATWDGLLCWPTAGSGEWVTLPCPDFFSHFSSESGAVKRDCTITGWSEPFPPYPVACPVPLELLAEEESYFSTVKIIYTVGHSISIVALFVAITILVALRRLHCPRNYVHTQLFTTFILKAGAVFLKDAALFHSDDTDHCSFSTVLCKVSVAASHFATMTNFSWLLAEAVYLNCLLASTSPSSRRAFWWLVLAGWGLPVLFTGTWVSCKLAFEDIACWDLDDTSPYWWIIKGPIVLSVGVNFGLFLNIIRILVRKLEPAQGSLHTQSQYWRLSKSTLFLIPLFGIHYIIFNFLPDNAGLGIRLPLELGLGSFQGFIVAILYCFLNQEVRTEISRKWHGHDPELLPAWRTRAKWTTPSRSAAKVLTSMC
Description: Normal human pituitary was purchased from the National Hormone and Peptide Program (UCLA Medical Center, Torrance, Calif.).

GH release [3] = experiment: In vivo endocrine activity, GH release after subcutaneous administration (Table 9); details: rat, subcutaneous (s.c.) injection
Description: Subcutaneous Administration. Adult male rats were used and anesthetized with pentobarbital (6 mg/100 g, b.w.), by i.p. injection. […] Blood samples were taken from the jugular vein 5, 15 and/or 30 minutes after the injection. The blood samples were centrifuged, plasma was removed and the GH level was measured byELISA. The results are summarized in terms of potency in Table 9.

GHRH receptor [4] = biological target: T1, GHRH receptor; experiment: GHRH receptor binding, competition with 125I-labeled JV-1-42, human pituitary membrane homogenates (Table 7); design: Normal human pituitaries were purchased from the National Hormone and Peptide Program; tissue National Hormone and Peptide Program (A.F. Parlow, Harbor-UCLA Medical Center, Torrance, Calif.); host or cells: normal human pituitary, membrane fraction; details: for Relative affinity (Binding potency) vs JI-38: JI-38 = 1, Table 7
Description: Normal human pituitaries were purchased from the National Hormone and Peptide Program (A.F. Parlow, Los Angeles, County Harbor-UCLA Medical Center, Torrance, Calif.).

GH release [5] = experiment: In vivo endocrine activity, GH release after intravenous administration (Table 8); details: rat, i.v. injection
Description: In vivo tests on endocrine activity of new GHRH agonists (Intravenous administration). For in vivo tests based on intravenous administration, adult male Sprague-Dawley rats were anesthetized with pentobarbital (6 mg/100/g, b.w.), and GHRH agonists were injected 20 minutes after the injection of pentobarbital. Blood samples were taken from the jugular vein (pretreated level), immediately after hGHRH(1-29)NH2 injection (as a control) or after hGHRH analogs injection. Blood samples were taken from the jugular vein 5, 15 and 30 minutes after the injection. The blood samples were centrifuged, plasma was removed and the GH level was measured by ELISA.

| Molecule | Serum GH level at selected time after injection (ng/ml), 0 min (GH release [1]) | Serum GH level at selected time after injection (ng/ml), 15 min (GH release [1]) | Serum GH level at selected time after injection (ng/ml), 30 min (GH release [1]) | GH-releasing potency after s.c. administration (in words) (GH release [1]) | Relative potency compared to GHRH(1-29), 15 min (GH release [1]) | Relative potency compared to JI-38, 15 min (GH release [1]) | Relative potency compared to GHRH(1-29), 30 min (GH release [1]) | Relative potency compared to JI-38, 30 min (GH release [1]) | Relative affinity (Binding potency) compared to JI-38 (GHRH receptor [2]) | GHRH receptor binding affinity (in words) (GHRH receptor [2]; compared to JI-38) | Relative affinity (Binding potency) compared to hGHRH(1-29) (GHRH receptor [2]) | GH releasing potency relative to JI-38 (=1) (GH release [3]; 15 min after) | GH releasing potency relative to JI-38 (=1) (GH release [3]; 30 min after) | IC50 (GHRH receptor [4]; 125I-JV-1-42, human pituitary membranes, Table 7) | Relative affinity (Binding potency) vs JI-38 (GHRH receptor [4]) | GH releasing potency in vivo relative to JI-38 (=1) (GH release [5]; 5 min after) | GH releasing potency in vivo relative to JI-38 (=1) (GH release [5]; 15 min after) | GH releasing potency in vivo relative to JI-38 (=1) (GH release [5]; 30 min after) |
| --- | --- | --- | --- | --- | --- | --- | --- | --- | --- | --- | --- | --- | --- | --- | --- | --- | --- | --- |
| CCCC[C@H](NC(=O)[C@@H](NC(=O)[C@H](CC(=O)O)NC(=O)[C@H](CCC(N)=O)NC(=O)[C@H](CC(C)C)NC(=O)[C@H](CC(C)C)NC(=O)[C@H](CCCN)NC(=O)[C@H](CCCNC(=N)N)NC(=O)[C@H](C)NC(=O)[C@H](CO)NC(=O)[C@H](CC(C)C)NC(=O)[C@H](CCC(N)=O)NC(=O)[C@H](CC)NC(=O)[C@H](CC(C)C)NC(=O)[C@@H](NC(=O)[C@H](CCCN)NC(=O)[C@H](CCCNC(=N)N)NC(=O)[C@H](Cc1ccc(O)cc1)NC(=O)[C@H](CO)NC(=O)[C@H](CCC(N)=O)NC(=O)[C@@H](NC(=O)[C@H](Cc1ccccc1)NC(=O)[C@@H](NC(=O)[C@H](C)NC(=O)[C@H](CC(=O)O)NC(=O)[C@@H](C)NC(=O)[C@H](Cc1ccc(O)cc1)N(C)C(C)=O)[C@@H](C)CC)[C@@H](C)O)C(C)C)[C@@H](C)CC)C(=O)N[C@@H](CC(=O)O)C(=O)NCCCCNC(=N)N [Peptide P-20351, [Ac—N—Me-Tyr^1, D-Ala^2, Gln^8, Orn^12, Abu^15, Orn^21, Nle^27, Asp^28, Agm^29] hGHRH(1-29)NH2] (Ac-[NMeY][dA]DAIFTQSYR[Orn]VL[Abu]QLSAR[Orn]LLQDI[Nle]D-Agmatine) | 30.6 ± 7.2 ng/mL | 90.8 ± 20.3 ng/mL | 65.4 ± 10.1 ng/mL | weaker GH-releasing potency | 18.8 | 0.30 | 33.6 | 0.30 | 0.71 | weaker GH-releasing potency and GH receptor binding affinity | 1.98 | 0.38 | 0.44 | 3.44 nM | 1.26 |  |  |  |
| CCCC[C@H](NC(=O)[C@@H](NC(=O)[C@H](CC(=O)O)NC(=O)[C@H](CCC(N)=O)NC(=O)[C@H](CC(C)C)NC(=O)[C@H](CC(C)C)NC(=O)[C@H](CCCN)NC(=O)[C@H](CCCNC(=N)N)NC(=O)[C@H](C)NC(=O)[C@H](CO)NC(=O)[C@H](CC(C)C)NC(=O)[C@H](CCC(N)=O)NC(=O)[C@H](CC)NC(=O)[C@H](CC(C)C)NC(=O)[C@@H](NC(=O)[C@H](CCCN)NC(=O)[C@H](CCCNC(=N)N)NC(=O)[C@H](Cc1ccc(O)cc1)NC(=O)[C@H](CO)NC(=O)[C@H](CCC(N)=O)NC(=O)[C@@H](NC(=O)[C@H](Cc1ccccc1)NC(=O)[C@@H](NC(=O)[C@H](C)NC(=O)[C@H](CC(=O)O)NC(=O)[C@H](C)NC(=O)[C@H](Cc1ccc(O)cc1)NC)[C@@H](C)CC)[C@@H](C)O)C(C)C)[C@@H](C)CC)C(=O)N[C@@H](CO)C(=O)N[C@@H](CCCNC(=N)N)C(=O)NC [Peptide P-27405, [N—Me-Tyr^1, Gln^8, Orn^12, Abu^15, Orn^21, Nle^27]hGHRH(1-29)NH—CH3] (H-[NMeY]ADAIFTQSYR[Orn]VL[Abu]QLSAR[Orn]LLQDI[Nle]SR-NHMe) | 21.8 ± 5.9 ng/mL | 227.9 ± 10.5 ng/mL | 143.3 ± 6.1 ng/mL |  | 62.3 | 0.99 | 135.2 | 1.21 | 1.09 |  | 3.04 | 1.60 | 1.13 |  | 4.03 |  |  |  |
| [N—Me-Tyr^1, D-Ala^2, Gln^8, Orn^12, Abu^15, Orn^21, Nle^27, Asp^28, Apa^30]hGHRH(1-30)NH—CH2—CH3 [Peptide P-28475] |  |  |  |  |  |  |  |  |  |  |  |  |  |  |  | 0.19 | 0.36 | 0.92 |
| [N—Me-Tyr^1, D-Ala^2, Gln^8, Orn^12, Abu^15, Orn^21, Nle^27, Asp^28, Har^30]hGHRH(1-30)NH—CH3 [Peptide P-27450] |  |  |  |  |  |  |  |  |  |  |  |  |  |  |  | 0.07 | 0.11 | 0.49 |
| CCCC[C@H](NC(=O)[C@@H](NC(=O)[C@H](CC(=O)O)NC(=O)[C@H](CCC(N)=O)NC(=O)[C@H](CC(C)C)NC(=O)[C@H](CC(C)C)NC(=O)[C@H](CCCN)NC(=O)[C@H](CCCNC(=N)N)NC(=O)[C@H](C)NC(=O)[C@H](CO)NC(=O)[C@H](CC(C)C)NC(=O)[C@H](CCC(N)=O)NC(=O)[C@H](CC)NC(=O)[C@H](CC(C)C)NC(=O)[C@@H](NC(=O)[C@H](CCCN)NC(=O)[C@H](CCCNC(=N)N)NC(=O)[C@H](Cc1ccc(O)cc1)NC(=O)[C@H](CO)NC(=O)[C@H](CCC(N)=O)NC(=O)[C@@H](NC(=O)[C@H](Cc1ccccc1)NC(=O)[C@@H](NC(=O)[C@H](C)NC(=O)[C@H](CC(=O)O)NC(=O)[C@@H](C)NC(=O)CCc1ccc(O)cc1)[C@@H](C)CC)[C@@H](C)O)C(C)C)[C@@H](C)CC)C(=O)N[C@@H](CC(=O)O)C(=O)N[C@H](CCCNC(=N)N)C(=O)NC [Peptide P-27401, [Dat^1, D-Ala^2, Gln^8, Orn^12, Abu^15, Orn^21, Nle^27, Asp^28, D-Arg^29]hGHRH(1-29)NH—CH3] (Desaminotyrosyl-[dA]DAIFTQSYR[Orn]VL[Abu]QLSAR[Orn]LLQDI[Nle]D[dR]-NHMe) | 24.6 ± 5.3 ng/mL | 217.9 ± 37.0 ng/mL | 204.1 ± 23.7 ng/mL | significantly higher potencies at 30 minutes than at 15 minutes | 58.8 | 0.93 | 253.4 | 2.27 | 1.05 |  | 2.94 | 0.61 | 0.73 |  | 1.59 |  |  |  |
